This is an account of results in PMC11212260, “Next-generation neuropeptide Y receptor small-molecule agonists inhibit mosquito-biting behavior” (Parasites & Vectors, 2024).

Where two headings read alike, the source gives them in different places.

The subject of test [1] is Aedes aegypti (Orlando strain) females. The experiment in a line: Host-seeking screening assay (miniport olfactometer). In kind it is in vivo. Conditions: fed 1 μM in saline, tested 48 h post-meal; for Attraction (relative to saline): per-compound value of Fig. 3C; for Host-seeking relative to saline (test compound % host-seeking/average matched saline % host-seeking): individual replicates. The protocol:
Groups of 60–150 females were placed in bucket cages with a diameter of 21.6 cm and height of 16.5 cm (VWR) and fasted with access to water for 24 h prior to feeding. Meals were delivered to females via Glytube membrane feeders as described previously. Meals consisted of 1.5 ml sheep blood (HemoStat Laboratories), saline (400 mM NaHCO3 + dih2O), or saline and test compound. Lyophilized compounds were stored at room temperature until use. High-concentration stocks (30 mM in 100% dimethyl sulfoxide [DMSO]) (Sigma-Aldrich) were stored at −20 °C and diluted in saline immediately prior to feeding. Once prepared, meals and glycerol heating elements were warmed in a 42 °C water bath for 15 min to provide warmth to attract mosquitos to feed. ATP (1 mM final concentration) and test compounds (1 μM final concentration) were added prior to placing the meal on top of the mesh on the cage containing female mosquitos. Females were allowed 15–20 min to feed to repletion. Abdominal engorgement was scored by eye and confirmed by weighing females to ensure full feeding (Data S1). […] Females were returned to their original cage with a diH2O wick for 48 h prior to behavioral testing. The lethality of each compound was measured by counting the number of dead females in each cage 24 h post-meal.
Miniport olfactometers were fabricated in-house as described previously. Information regarding design, construction, and use can be found at https://github.com/VosshallLab/Miniport-Construction. Miniport canisters consisted of a 6″ × 3″ × 3″ acrylic tube with a mesh screen to allow for air flow. Groups of 10–20 females were loaded into canisters 24 h post-meal. Females were left in canisters overnight to acclimate with two cotton balls soaked in diH20 to prevent desiccation. Behavior trials began 48 h post-meal. Canisters were randomly assigned to attraction traps 1–4 and given 5 min to acclimate. The stimulus end of the trap was connected to a flowmeter that supplied 5% CO2 at a rate of 30 ml/min. Thirty seconds of CO2 flow was supplied to activate females prior to opening the sliding door. Once opened, the sliding door gave females access to the attraction trap baited with a human-scented nylon stocking previously worn by the same experimenter for 8–10 h to collect body odor and stored in a plastic bag at −20 °C until use. After 5 min, the sliding door was closed and attraction was scored as mosquitoes in the attraction trap/total number of mosquitoes. For each experiment data were normalized to the matched average saline attraction from the same experiment (% attracted/average saline attraction). Any dead mosquitoes were excluded from the analysis. Non-fed females and blood-fed females served as environmental control groups while the saline-fed females served as the vehicle control each day. If non-fed or saline-fed females were less than 50% attracted or if blood-fed females were more than 20% attracted behavioral trials were halted and all data from that experimental day were discarded.

Another test concerns the target Ae. aegypti NPYLR7 (Aedes aegypti, UniProt U5N1H5). The experiment in a line: In vitro calcium (GCaMP6s) FLIPR assay in HEK293T cells transfected with NPYLR7. It is filed as cell-based. As for the experimental part:
The in vitro screening assay was adapted from, and carried out at HD Biosciences (HDB, Shanghai) as follows: HEK293T (Thermo Fisher Scientific) cells were grown in Dulbecco’s modified Eagle medium (DMEM) (high glucose, with glutamine), 10% fetal bovine serum, 1% penicillin–streptomycin (Pen/Strep), seeded in a 75 cm^2 flask, and incubated at 37 °C and 5% CO2. Cells were transiently transfected with 1 μg of each plasmid expressing GCaMP6s (Addgene […]) (Chen et al., 2013), mouse Gqα15 (Addgene #40753) (Offermanns and Simon, 1995) and Ae. aegypti NPYLR7 (Addgene #52392) (Duvall et al. 2019) using Lipofectamine 2000 (Invitrogen) in 4 ml of Opti-MEM (Invitrogen). This mixture was added to a plate after 20 min and incubated for 6–8 h. Cells were then trypsinized, resuspended in phenol-free media, and plated in a 384-well plate (Greiner Bio-One) at a density of 20,000 cells per 40 μl, and incubated overnight (37 °C, 5% CO2). Cells were imaged directly in phenol-free media. Plates were loaded into a Molecular Devices fluorescence imaging plate reader (FLIPR) with an excitation wavelength of 470–495 nm and an emitted wavelength of 515–575 nm. Plates were imaged every second for 5 min. After 30 s of baseline fluorescence recording, 10 μl of the test compound in reading buffer [Hank’s Balanced Salt Solution (Gibco) + 20 mM HEPES (Sigma-Aldrich)] was added. Concentrations tested ranged from 0 to 100 μM. Data were collected in raw fluorescence units (RFU).
Each test plate included replicates of 10 μM FMRFa3 (H‐Ala‐Gly‐Gln‐Gly‐Phe‐Met‐Arg‐Phe‐NH2), an Ae. aegypti neuropeptide agonist of NPYLR7 used to calculate the hundred percent effect (HPE). The zero percent effect (ZPE) control was calculated as a response to buffer alone. The Z′ factor was calculated for each plate by Z^′=1-3σHPE+3σZPE/|μHPE-μZPE| . Plates with Z′ < 0.5 were excluded from analysis. Raw fluorescence units (RFU) were converted to percent effect relative to the average of the ZPE and HPE. Percent effect = (sample luminescence − average ZPE)/(average HPE − average ZPE)×100. […] Each replicate was plotted as percent effect versus log[concentration], and replicates with maximal responses between 20 and 250% were used for EC50 calculations. Relative EC50 was calculated using an [Agonist] versus response–variable slope four-parameter model where Y=Bottom+(X^Hillslope)∗(Top-Bottom)/(X^HillSlope+EC50^HillSlope) . For compounds with multiple replicates, the relative EC50 of each replicate was averaged.

Where [2] appears, read: EC50 of the individual assay date/plate (assay date), read-out: EC50.
The mark [3] stands for this setting: Figure 1E Summary, second list (n = 48), read-out: Reported Metric (Summary list).
Where [4] appears, read: HEK-293T, single replicate, normalised response.
[5] abbreviates: relative EC50, percent effect relative to 10 μM FMRFa3, read-out: EC50.
Setting [6] is: sheet Figure 3C, unit inferred, read-out: EC50.
Setting [7] is: summary EC50 per compound (mean over assay dates), the unit is taken from the neighbouring EC50 (uM) column, read-out: Reported Metric.
The mark [8] stands for this setting: Figure 1E Summary, third list (n = 39), read-out: Reported Metric (Summary list).

Sequence of Ae. aegypti NPYLR7 (U5N1H5 entry or part of it): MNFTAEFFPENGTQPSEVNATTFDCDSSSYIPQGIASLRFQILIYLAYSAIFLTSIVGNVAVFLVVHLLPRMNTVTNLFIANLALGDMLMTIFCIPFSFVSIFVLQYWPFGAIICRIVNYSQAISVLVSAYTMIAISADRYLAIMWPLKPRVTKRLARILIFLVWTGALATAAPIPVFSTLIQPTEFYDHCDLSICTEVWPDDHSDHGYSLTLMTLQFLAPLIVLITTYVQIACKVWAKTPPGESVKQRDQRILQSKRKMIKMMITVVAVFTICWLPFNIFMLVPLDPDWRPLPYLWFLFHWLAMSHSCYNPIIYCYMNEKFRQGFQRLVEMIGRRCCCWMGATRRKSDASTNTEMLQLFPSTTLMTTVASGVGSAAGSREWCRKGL

Take `Cc1nc(NC(=N)N)nc2cc(OCc3cccnn3)ccc12` [TDI-014179]: the “Attraction (relative to saline)” value in test [1] came to 0.865. In addition, the EC50 at Ae. aegypti NPYLR7 (setting [2]), on Ae. aegypti NPYLR7 (setting [3]), at Ae. aegypti NPYLR7 (setting [5]), at Ae. aegypti NPYLR7 (setting [6]) and at Ae. aegypti NPYLR7 (setting [7]) was 39.3 µM each time. At Ae. aegypti NPYLR7 (setting [4]), the activation at 33.3333 µM is 23.1%.

Consider `COc1ccc(COc2ccc3c(C)nc(NC(=N)N)nc3c2)cc1OC` [TDI-014180], for which the “Host-seeking relative to saline (test compound % host-seeking/average matched saline % host-seeking)” value in test [1] (listed as TDI-04180) is on record as 0.93. For the same compound, the “Attraction (relative to saline)” value in test [1] turned out to be 0.93. Besides, the EC50 on Ae. aegypti NPYLR7 (setting [2]) was determined as 0.00192 µM. Also, the EC50 at Ae. aegypti NPYLR7 (setting [8]) was determined as 0.00192 µM. For the same compound, at Ae. aegypti NPYLR7 (HEK-293T, 0.0152 uM, single replicate, normalised response), the activation at 0.0152 µM was determined as 42.4%. On Ae. aegypti NPYLR7 (setting [4]), the activation at 0.0457 µM was found to be 59.4%, the activation at 0.1372 µM was 67.9%, the activation at 0.4115 µM turned out to be 85.1% and the activation at 3.7037 µM came out at 96.7%. At Ae. aegypti NPYLR7 (setting [4]), the activation at 11.1111 µM amounted to 74% and the activation at 33.3333 µM was determined as 81.8%. Also, at Ae. aegypti NPYLR7 (HEK-293T, 100 uM, single replicate of the dose-response curve, normalised response), the activation at 100 µM came out at 63.8%. Also, the EC50 on Ae. aegypti NPYLR7 (setting [5]) is 0.00192 µM. In addition, at Ae. aegypti NPYLR7 (setting [6]), the EC50 came to 0.00192 µM. Besides, the EC50 on Ae. aegypti NPYLR7 (setting [7]) came to 0.00192 µM.

Take `Cc1nc(NC(=N)N)nc2cc(OCc3cnccn3)ccc12` [TDI-014181]: the “Attraction (relative to saline)” value in test [1] came out at 0.975. Also, the EC50 on Ae. aegypti NPYLR7 (setting [2]), at Ae. aegypti NPYLR7 (setting [3]), at Ae. aegypti NPYLR7 (setting [5]), at Ae. aegypti NPYLR7 (setting [6]) and on Ae. aegypti NPYLR7 (setting [7]) was 6.21 µM throughout.

With `Cc1nc(NC(=N)N)nc2cc(OCc3ccc(S(C)(=O)=O)cc3)ccc12` [TDI-014182], the “Attraction (relative to saline)” value in test [1] was 0.9. Besides, the EC50 on Ae. aegypti NPYLR7 (setting [2]), on Ae. aegypti NPYLR7 (setting [8]), at Ae. aegypti NPYLR7 (setting [5]), on Ae. aegypti NPYLR7 (setting [6]) and on Ae. aegypti NPYLR7 (setting [7]) was 0.222 µM each time. In addition, the activation at 0.4115 µM at Ae. aegypti NPYLR7 (setting [4]) came to 32%. In addition, the activation at 1.2346 µM at Ae. aegypti NPYLR7 (HEK-293T, 1.2346 uM, single replicate, normalised response) was 62.2%. In addition, the activation at 3.7037 µM on Ae. aegypti NPYLR7 (setting [4]) worked out at 77.6%. On Ae. aegypti NPYLR7 (setting [4]), the activation at 11.1111 µM is 90.2%. In addition, on Ae. aegypti NPYLR7 (setting [4]), the activation at 33.3333 µM is 80.3%.

For the compound `Cc1nc(NC(=N)N)nc2cc(OC3CCCc4ccccc43)ccc12` (stereo not shown) [TDI-014183], the “Host-seeking relative to saline (test compound % host-seeking/average matched saline % host-seeking)” value in test [1] (listed as TDI-04183) came to 0.97. Further, in test [1], the “Attraction (relative to saline)” value is 0.88. Also, the EC50 at Ae. aegypti NPYLR7 (setting [2]), on Ae. aegypti NPYLR7 (setting [3]), at Ae. aegypti NPYLR7 (setting [5]), on Ae. aegypti NPYLR7 (setting [6]) and on Ae. aegypti NPYLR7 (setting [7]) was 13.7 µM in each case.

Turning to `CNc1nc(NC(=N)N)nc2cc(OCc3ccc(OC)cc3)c(OC)cc12` [TDI-014185], the “Attraction (relative to saline)” value in test [1] turned out to be 0.79. Besides, the EC50 at Ae. aegypti NPYLR7 (setting [2]), at Ae. aegypti NPYLR7 (setting [8]), on Ae. aegypti NPYLR7 (setting [5]), on Ae. aegypti NPYLR7 (setting [6]) and at Ae. aegypti NPYLR7 (setting [7]) was 0.0175 µM each time. Besides, the activation at 0.0457 µM at Ae. aegypti NPYLR7 (setting [4]) was found to be 70.6%. In addition, at Ae. aegypti NPYLR7 (setting [4]), the activation at 0.1372 µM worked out at 69.2%. Moreover, the activation at 11.1111 µM on Ae. aegypti NPYLR7 (setting [4]) stood at 79.9%.
